Experimental data taken from ChEMBL document CHEMBL1149205, “Biological evaluation of substituted quinolines” (Bioorg Med Chem Lett, 2004).

What was measured:
MRC5 = test: Cytotoxicity in MRC-5 cells; format: functional, cell-based; details: Homo sapiens
Homo sapiens = species: Homo sapiens; test: Cytotoxicity in macrophages; format: functional
Plasmodium falciparum [1] = test: In vitro anti-protozoal activity against Plasmodium falciparum Ghana strain; format: functional, organism-based
Plasmodium falciparum [2] = test: In vitro anti-protozoal activity against Plasmodium falciparum W2; format: functional, organism-based
Trypanosoma brucei = test: In vitro anti protozoal activity against Trypanosoma brucei strain S427 was determined; format: functional, organism-based
Trypanosoma cruzi = test: In vitro anti protozoal activity against Trypanosoma cruzi strain Tulahuen CL2 was determined; format: functional, organism-based
Leishmania infantum = test: In vitro anti protozoal activity against Leishmania infantum strain MHOM-ET-67/L82 was determined; format: functional, organism-based
[3] = system: Human T-cell leukemia virus type I; test: Inhibitory activity against proliferation of HTLV-1 transformed cell lines (HUT-102) at 10 uM; format: functional; details: Primate T-lymphotropic virus 1, HuT-102
Leishmania amazonensis = test: In vitro anti protozoal activity against Leishmania amazonensis strain MHOM/ET/L82/LV9 was determined; format: functional, organism-based

Compound	IC50 (MRC5)	IC50 (Homo sapiens)	IC50 (Plasmodium falciparum [1])	IC50 (Plasmodium falciparum [2])	IC50 (Trypanosoma brucei)	IC50 (Trypanosoma cruzi)	IC50 (Leishmania infantum; Leishmania infantum)	inhibition at 10 µM [3]	IC50 (Leishmania amazonensis)	IC50 (Leishmania infantum)
COc1ccc(/C=C/c2ccc3ccccc3n2)c(OC)c1	> 32 µM	> 32 µM	> 32 µM	30 µM	18 µM	> 32 µM	> 32 µM	0%	> 32 µM	
COc1cc(NCc2ccc3ccccc3n2)cc(OC)c1OC	> 32 µM	> 32 µM	> 32 µM	> 32 µM	> 32 µM	> 32 µM	> 32 µM	0%	> 32 µM	
Fc1ccccc1NCc1ccc2ccccc2n1	> 32 µM	> 32 µM	> 32 µM	> 32 µM	> 32 µM	> 32 µM	> 32 µM	0%	> 32 µM	
O=C(/C=C/c1ccc2ccccc2n1)N1CCCCC1	> 32 µM	> 32 µM	15 µM	17 µM	> 32 µM	17 µM	16 µM	0%	18 µM	
OC(Cc1ccc2ccccc2n1)c1ccc(F)cc1 (centres undefined)	> 32 µM	> 32 µM	4 µM	1 µM	> 32 µM	> 32 µM	> 32 µM	0%	> 32 µM	
O=[N+]([O-])c1ccc(C(O)Cc2ccc3ccccc3n2)cc1 (centres undefined)	> 32 µM	> 32 µM	15 µM	6 µM	> 32 µM	> 32 µM	> 32 µM	10%	> 32 µM	
COc1ccc(C(O)Cc2ccc3ccccc3n2)cc1OC (centres undefined)	> 32 µM	> 32 µM	> 32 µM	> 32 µM	> 32 µM	> 32 µM	> 32 µM	0%	> 32 µM	
CCCCCCCCCCCCCCCCOP(=O)([O-])OCC[N+](C)(C)C [MILTEFOSINE]		12.5 µM							3.12 µM	
OC(Cc1ccc2ccccc2n1)c1ccco1 (centres undefined)	> 32 µM	> 32 µM	> 32 µM	> 32 µM	> 32 µM	> 32 µM	> 32 µM	0%	> 32 µM	
CC1CS(=O)(=O)CCN1/N=C/c1ccc([N+](=O)[O-])o1 (centres undefined) [NIFURTIMOX]						0.45 µM				
MEGLUMINE ANTIMONATE										7.15 µM
Fc1ccc(/C=C/c2ccc3ccccc3n2)cc1	> 32 µM	> 32 µM	> 32 µM	> 32 µM	> 32 µM	22 µM	> 32 µM	26%	> 32 µM	
CN1CCN(C(=O)/C=C/c2ccc3ccccc3n2)CC1	> 32 µM	> 32 µM	> 32 µM	> 32 µM	> 32 µM	> 32 µM	> 32 µM	0%	> 32 µM	
Cc1ccc(C(=O)Nc2ccc(S(=O)(=O)O)c3cc(S(=O)(=O)O)cc(S(=O)(=O)O)c23)cc1NC(=O)c1cccc(NC(=O)Nc2cccc(C(=O)Nc3cc(C(=O)Nc4ccc(S(=O)(=O)O)c5cc(S(=O)(=O)O)cc(S(=O)(=O)O)c45)ccc3C)c2)c1 [SURAMIN]					0.09 µM					
O=C(/C=C/c1ccc2ccccc2n1)N1CCOCC1	> 32 µM	> 32 µM	12 µM	16 µM	> 32 µM	13 µM	18 µM	0%	> 32 µM	
CN(C)c1ccc(/C=C/c2ccc3ccccc3n2)cc1	> 32 µM	16 µM	> 32 µM	> 32 µM	6 µM	17 µM	> 32 µM	26%	16 µM	
Br/C=C/c1ccc2ccccc2n1	> 32 µM	13 µM	> 32 µM		1 µM	0.15 µM	2 µM		3 µM	
COc1ccc(/C=C/c2ccc3ccccc3n2)cc1OC	> 32 µM	> 32 µM	> 32 µM	> 32 µM	26 µM	> 32 µM	22 µM	0%	> 32 µM	
O=C/C=C/c1ccc2ccccc2n1	16 µM	9 µM	31 µM		19 µM	5 µM	2 µM	34%	4 µM	
O=[N+]([O-])/C=C/c1ccc2ccccc2n1	22 µM	> 32 µM	16 µM	14 µM	18 µM	1 µM	> 8 µM	76%	> 32 µM	
CN(C)c1ccc(C(O)Cc2ccc3ccccc3n2)cc1 (centres undefined)	> 32 µM	> 32 µM	> 32 µM	> 32 µM	> 32 µM	> 32 µM	> 32 µM	0%	> 32 µM	
O=[N+]([O-])c1ccc(/C=C/c2ccc3ccccc3n2)cc1	> 32 µM	> 32 µM	> 32 µM	> 32 µM	> 32 µM	28 µM	> 32 µM	0%	> 32 µM	
